Results as given in the NIST ThermoML archive (doi:10.1021/acs.jced.9b00424).

Assay: xn = mol fraction of the nth substance listed
Settings: for surface tension liquid-gas: Pendant drop shape; for viscosity: 100 kPa, Concentric cylinders viscometry; for viscosity / mass density: Liquid; for mass density: 101 kPa, Vibrating tube method

CCCCCCCC(=O)O [octanoic acid] + CC(C)[C@@H]1CC[C@@H](C)C[C@H]1O
Settings | mass density [kg/m3] | surface tension liquid-gas [mN/m] | viscosity [mPa·s]
297.82 K, x2 = 0 | – | 30.95 | –
298 K, x2 = 0.333 | – | 25.72 | –
298.11 K, x2 = 0.5 | – | 26.67 | –
298.15 K, x2 = 0 | 917.2 | – | 5.17
298.15 K, x2 = 0.25 | 914.7 | – | 7.61
298.15 K, x2 = 0.333 | 914.1 | – | 8.81
298.15 K, x2 = 0.5 | 912.3 | – | 12.18
298.15 K, x2 = 0.667 | 910.3 | – | 17.71
298.15 K, x2 = 0.75 | 909.3 | – | 20.82
298.16 K, x2 = 0.25 | – | 23.32 | –
298.2 K, x2 = 0.75 | – | 23.77 | –
298.24 K, x2 = 0.667 | – | 20.94 | –
302.68 K, x2 = 0 | – | 30.04 | –
303.04 K, x2 = 0.5 | – | 25.67 | –
303.15 K, x2 = 0 | 910.3 | – | 4.54
303.15 K, x2 = 0.25 | 908 | – | 6.46
303.15 K, x2 = 0.333 | 907.4 | – | 7.37
303.15 K, x2 = 0.5 | 905.7 | – | 9.83
303.15 K, x2 = 0.667 | 903.7 | – | 13.65
303.15 K, x2 = 0.75 | 902.7 | – | 15.46
303.69 K, x2 = 0.333 | – | 24.84 | –
303.77 K, x2 = 0.667 | – | 20.53 | –
303.85 K, x2 = 0.25 | – | 22.25 | –
303.88 K, x2 = 0.75 | – | 23 | –
307.73 K, x2 = 0.5 | – | 24.67 | –
308.15 K, x2 = 0 | 903.8 | – | 4.01
308.15 K, x2 = 0.25 | 901.7 | – | 5.54
308.15 K, x2 = 0.333 | 901.1 | – | 6.23
308.15 K, x2 = 0.5 | 899.5 | – | 8.06
308.15 K, x2 = 0.667 | 897.6 | – | 10.73
308.15 K, x2 = 0.75 | 896.6 | – | 11.94
308.49 K, x2 = 0 | – | 28.56 | –
308.53 K, x2 = 0.333 | – | 24.25 | –
308.73 K, x2 = 0.25 | – | 21.65 | –
308.75 K, x2 = 0.667 | – | 20.24 | –
308.78 K, x2 = 0.75 | – | 22.27 | –
312.93 K, x2 = 0 | – | 27.56 | –
313.15 K, x2 = 0 | 897.6 | – | 3.59
313.15 K, x2 = 0.25 | 895.6 | – | 4.81
313.15 K, x2 = 0.333 | 895.1 | – | 5.35
313.15 K, x2 = 0.5 | 893.5 | – | 6.72
313.15 K, x2 = 0.667 | 891.7 | – | 8.62
313.15 K, x2 = 0.75 | 890.6 | – | 9.42
313.17 K, x2 = 0.333 | – | 23.9 | –
313.35 K, x2 = 0.5 | – | 23.58 | –
314.11 K, x2 = 0.25 | – | 21.16 | –
314.26 K, x2 = 0.667 | – | 19.94 | –
314.39 K, x2 = 0.75 | – | 21.81 | –
317.8 K, x2 = 0 | – | 26.06 | –
318.12 K, x2 = 0.5 | – | 22.74 | –
318.15 K, x2 = 0 | 891.7 | – | 3.2
318.15 K, x2 = 0.25 | 889.9 | – | 4.18
318.15 K, x2 = 0.333 | 889.4 | – | 4.6
318.15 K, x2 = 0.5 | 887.9 | – | 5.63
318.15 K, x2 = 0.667 | 886.1 | – | 7
318.15 K, x2 = 0.75 | 885 | – | 7.53
318.42 K, x2 = 0.333 | – | 23.36 | –
318.81 K, x2 = 0.667 | – | 19.7 | –
318.88 K, x2 = 0.25 | – | 20.56 | –
318.9 K, x2 = 0.75 | – | 21.15 | –
322.15 K, x2 = 0 | – | 24.99 | –
322.96 K, x2 = 0.333 | – | 22.93 | –
322.97 K, x2 = 0.5 | – | 21.75 | –
323.15 K, x2 = 0 | 886.2 | – | 2.88
323.15 K, x2 = 0.25 | 884.6 | – | 3.68
323.15 K, x2 = 0.333 | 884 | – | 4
323.15 K, x2 = 0.5 | 882.6 | – | 4.79
323.15 K, x2 = 0.667 | 880.9 | – | 5.78
323.15 K, x2 = 0.75 | 879.5 | – | 6.12
323.52 K, x2 = 0.667 | – | 19.52 | –
323.58 K, x2 = 0.25 | – | 20.1 | –
323.61 K, x2 = 0.75 | – | 20.72 | –
327.39 K, x2 = 0 | – | 24.46 | –
328.11 K, x2 = 0.75 | – | 20.22 | –
328.15 K, x2 = 0 | 880.9 | – | 2.609
328.15 K, x2 = 0.25 | 879.5 | – | 3.25
328.15 K, x2 = 0.333 | 878.9 | – | 3.51
328.15 K, x2 = 0.5 | 877.6 | – | 4.11
328.15 K, x2 = 0.667 | 875.9 | – | 4.83
328.15 K, x2 = 0.75 | 874.4 | – | 5.05
328.35 K, x2 = 0.5 | – | 20.44 | –
328.41 K, x2 = 0.333 | – | 22.47 | –
328.48 K, x2 = 0.667 | – | 19.19 | –
328.93 K, x2 = 0.25 | – | 19.73 | –
331.72 K, x2 = 0 | – | 23.43 | –
332.7 K, x2 = 0.75 | – | 19.65 | –
332.78 K, x2 = 0.333 | – | 21.79 | –
332.97 K, x2 = 0.5 | – | 19.47 | –
333.15 K, x2 = 0 | 876 | – | 2.372
333.15 K, x2 = 0.25 | 874.7 | – | 2.9
333.15 K, x2 = 0.333 | 874.1 | – | 3.1
333.15 K, x2 = 0.5 | 872.9 | – | 3.56
333.15 K, x2 = 0.667 | 871.2 | – | 4.09
333.15 K, x2 = 0.75 | 869.4 | – | 4.22
333.27 K, x2 = 0.667 | – | 18.98 | –
333.38 K, x2 = 0.25 | – | 19.41 | –
338.15 K, x2 = 0 | 871.4 | – | 2.166
338.15 K, x2 = 0.25 | 870.1 | – | 2.595
338.15 K, x2 = 0.333 | 869.6 | – | 2.753
338.15 K, x2 = 0.5 | 868.4 | – | 3.11
338.15 K, x2 = 0.667 | 866.7 | – | 3.49
338.15 K, x2 = 0.75 | 864.6 | – | 3.56
343.15 K, x2 = 0 | 867.1 | – | 1.985
343.15 K, x2 = 0.25 | 865.9 | – | 2.336
343.15 K, x2 = 0.333 | 865.4 | – | 2.461
343.15 K, x2 = 0.5 | 864.3 | – | 2.732
343.15 K, x2 = 0.667 | 862.6 | – | 3.02
343.15 K, x2 = 0.75 | 860 | – | 3.04
348.15 K, x2 = 0 | 863 | – | 1.826
348.15 K, x2 = 0.25 | 862 | – | 2.113
348.15 K, x2 = 0.333 | 861.5 | – | 2.212
348.15 K, x2 = 0.5 | 860.4 | – | 2.419
348.15 K, x2 = 0.667 | 858.7 | – | 2.625
348.15 K, x2 = 0.75 | 855.7 | – | 2.635
353.15 K, x2 = 0 | 859.3 | – | 1.683
353.15 K, x2 = 0.25 | 858.3 | – | 1.921
353.15 K, x2 = 0.333 | 857.9 | – | 1.996
353.15 K, x2 = 0.5 | 856.7 | – | 2.156
353.15 K, x2 = 0.667 | 855.1 | – | 2.301
353.15 K, x2 = 0.75 | 851.6 | – | 2.324
